Test results from patent US20130310374A1, “Substituted Imidazoquinoline Derivatives” (PIRAMAL ENTERPRISES LIMITED`, priority 2010, published 2013).

Tests used:
Type in all cases: cell-based
IL-6 = assay: Anti-CD3 mAb and anti-CD28 mAb-induced cytokine production assay, IL-6; details: Homo sapiens, hPBMC, anti-CD3/anti-CD28, 18 hours
Description: (§1) Anti-CD3 mAb and Anti-CD28 mAb-Induced Cytokine Production Assay
(§2) Preparation of anti-CD3/anti-CD28 coated plates: 96 well plates were coated with goat anti-mouse IgG, Fc (Millipore) at a concentration of 16.5 μg/mL in coating buffer ([…] NaHCO3, 3.56 g Na2CO3, pH 9.5). Following overnight incubation at 4° C., the plates were washed and then incubated with anti-CD3 (3.5 μg/mL; R&D Systems) and anti-CD28 (35 ng/mL; R&D Systems) cocktail for 3 hours. Subsequently, the plates were washed, and used for hPBMC stimulation.
(§3) hPBMC stimulation: Peripheral blood was collected from normal healthy volunteers after informed consent. Peripheral blood mononuclear cells (hPBMC) were harvested using Ficoll-Hypaque density gradient centrifugation (1.077 g/mL; Sigma Aldrich). hPBMCs were resuspended in RPMI 1640 culture medium (Gibco BRL, Pasley, UK) containing 10% FCS, 100 U/mL penicillin (Sigma Chemical Co. St Louis, Mo.) and […] streptomycin (Sigma Chemical Co. St Louis, Mo.) at 1.25×10^6 cells/mL of assay medium. 2.5×10^5 hPBMCs were added per well of 96-well plate coated with or without anti-CD3/anti-CD28 mAbs. Simultaneously, 0.025 μM of compounds of the present invention or 0.5% DMSO (vehicle control) were added to appropriate wells. The cells were then incubated for 18 hours at 37° C., 5% CO2 following which supernatants were collected, stored at […] and assayed later for TNF-α, IL-6 and IFN-γ by ELISA (OptiEIA ELISA sets; BD Biosciences). In every experiment, each condition was run in triplicate wells. In all experiments, the toxicity of test compounds was ascertained, in parallel, using the MTS (3-(4,5-dimethylthiazol-2-yl)-5-(3-carboxymethoxyphenyl)-2-(4-sulfonyl)-2H-tetrazolium) assay as described in Am. J. Physiol. Cell Physiol., 2003, 285, C813-C822.

AsPC 1 = assay: Cytotoxicity propidium iodide assay, AsPC 1; details: Homo sapiens, ASPC1; AsPC 1 (pancreatic), 48 hours treatment; read-out: IC50 Values in μM, C4b
IFN-γ = assay: Anti-CD3 mAb and anti-CD28 mAb-induced cytokine production assay, IFN-γ; details: Homo sapiens, hPBMC, anti-CD3/anti-CD28, 18 hours
Description: as §1, §2, §3

BT 549 = assay: Cytotoxicity propidium iodide assay, BT 549; details: Homo sapiens; BT 549 (breast), 48 hours treatment; read-out: IC50 Values in μM, C3c
Outline: (§4)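 3000 cells/well; 18-24 h attach, 37° C./5% CO2; compound dilution series in medium (DMSO stock), 48 h; PBS wash; PI […]; freeze overnight, thaw at RT; fluorescence read; % viability vs untreated; IC50 from curve.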

TNF-α = assay: Anti-CD3 mAb and anti-CD28 mAb-induced cytokine production assay, TNF-α; details: Homo sapiens, hPBMC, anti-CD3/anti-CD28, 18 hours
Description: as §1, §2, §3

MDA MB 231 = assay: Cytotoxicity propidium iodide assay, MDA MB 231; details: Homo sapiens; MDA MB 231 (breast), 48 hours treatment; read-out: IC50 Values in μM, C3a
LN18 = assay: Cytotoxicity propidium iodide assay, LN18; details: Homo sapiens, LN-18; LN18 (glioblastoma), 48 hours treatment; read-out: IC50 Values in μM, C5b
Description: The assay was designed as in the reference, Anticancer Drugs, 2002, 13, 1-8, the disclosure of which is incorporated herein by reference for the teaching of the assay.
Cells from cell lines (ATCC) as mentioned in the table given below were seeded at a density of 3000 cells/well in a white opaque 96-well plate. Following incubation at 37° C./5% CO2 for a period of 18-24 hours, the cells were treated with various concentrations (stock solution was prepared in DMSO and subsequent dilutions were made in media as per ATCC guidelines) of the compounds of the present invention for a period of 48 hours. At the end of treatment, the culture medium was discarded, the cells were washed with 1×PBS and 200 μL of […] propidium iodide was added to each well. The plates were frozen at […] overnight. For analysis, the plates were warmed to RT, allowed to thaw and were read in PoleStar fluorimeter with the fluorescence setting. The percentage of viable cells in the non-treated set of wells was considered to be 100 and the percentage viability following treatment was calculated accordingly. IC50 values were calculated from graphs plotted using these percentages. IC50 values for certain compounds of present invention are depicted in Table 1 and % Inhibition of certain compounds of present invention are depicted in Table 2.

K562 = assay: Cytotoxicity propidium iodide assay, K562; details: Homo sapiens; K562 (CML), 48 hours treatment; read-out: IC50 Values in μM, C6a
Outline: as §4

KCL22/SR = assay: Cytotoxicity propidium iodide assay, KCL22/SR; details: Homo sapiens, KCL-22; KCL22/SR (CML), 48 hours treatment; read-out: IC50 Values in μM, C6e
Outline: as §4

Structure (SMILES): Cn1c(=O)n(-c2ccc(C(C)(C)C#N)nc2)c2c3cc(-c4cnc5ccccc5c4)ccc3ncc21 [Example 2, 2-Methyl-2-(5-(3-methyl-2-oxo-8-(quinolin-3-yl)-2,3-dihydro-1H-imidazo[4,5-c]quinolin-1-yl)pyridin-2-yl)propanenitrile]
- inhibition at 0.025 µM (IL-6): 43%
- IC50 (AsPC 1): 0.09 µM
- inhibition at 0.025 µM (IFN-γ): 71%
- IC50 (BT 549): 0.9 µM
- inhibition at 0.025 µM (TNF-α): 63%
- IC50 (MDA MB 231): 0.07 µM
- IC50 (LN18): 0.33 µM

Structure (SMILES): Cn1c(=O)n(-c2ccc(C(C)(C)C#N)nc2)c2c3cc(-c4cnc(N)c(C(F)(F)F)c4)ccc3ncc21 [Example 3, 2-(5-(8-(6-Amino-5-(trifluoromethyl)pyridin-3-yl)-3-methyl-2-oxo-2,3-dihydro-1H-imidazo[4,5-c]quinolin-1-yl)pyridin-2-yl)-2-methylpropanenitrile]
- inhibition at 0.025 µM (IL-6): 84%
- IC50 (AsPC 1): 0.019 µM
- inhibition at 0.025 µM (IFN-γ): 93%
- IC50 (BT 549): 0.03 µM
- inhibition at 0.025 µM (TNF-α): 92%
- IC50 (MDA MB 231): 0.014 µM
- IC50 (K562): 0.056 µM
- IC50 (KCL22/SR): 0.06 µM
- IC50 (LN18): 0.144 µM

Structure (SMILES): COc1ccc(-n2c(=O)n(C)c3cnc4ccc(-c5cnc(N)c(C(F)(F)F)c5)cc4c32)cn1 [Example 19, 8-(6-Amino-5-(trifluoromethyl)pyridin-3-yl)-1-(6-methoxypyridin-3-yl)-3-methyl-1H-imidazo[4,5-c]quinolin-2(3H)-one]
- inhibition at 0.025 µM (IL-6): 86%
- IC50 (AsPC 1): 0.1 µM
- inhibition at 0.025 µM (IFN-γ): 87%
- IC50 (BT 549): 0.23 µM
- inhibition at 0.025 µM (TNF-α): 87%
- IC50 (MDA MB 231): 0.17 µM
- IC50 (K562): 0.056 µM
- IC50 (KCL22/SR): 0.06 µM
- IC50 (LN18): 0.096 µM

Structure (SMILES): CC(C)(C#N)c1ccc(-n2c(=O)n(CC#N)c3cnc4ccc(-c5cnc(N)c(C(F)(F)F)c5)cc4c32)cn1 [Example 16, 2-(5-(8-(6-Amino-5-(trifluoromethyl)pyridin-3-yl)-3-(cyanomethyl)-2-oxo-2,3-dihydro-1H-imidazo[4,5-c]quinolin-1-yl)pyridin-2-yl)-2-methylpropanenitrile]
- inhibition at 0.025 µM (IL-6): 75%
- IC50 (AsPC 1): 0.038 µM
- inhibition at 0.025 µM (IFN-γ): 80%
- IC50 (BT 549): 0.015 µM
- inhibition at 0.025 µM (TNF-α): 81%
- IC50 (MDA MB 231): 0.07 µM
- IC50 (K562): 0.4 µM
- IC50 (KCL22/SR): 0.23 µM
- IC50 (LN18): 0.44 µM
